From paper PMC3655264, “A Large-Scale Conformational Change Couples Membrane Recruitment to Cargo Binding in the AP2 Clathrin Adaptor Complex” (Cell, 2010)
pKd: −log10 of the molar value.

How the values were obtained:
Assay in all cases: SPR, PtdIns4,5P2-containing liposomes on L1 chip
[1] = target: T1, AP2 core (Rattus norvegicus; Mus musculus; Homo sapiens, UniProt P18484+P63010+P84092, form not given, species not given); conditions: apparent, multivalent membrane binding
T1 construct: gene Ap2a2; heterotetrameric 200 kDa core: alpha trunk-GST, His6-beta2 trunk, mu2 with myc tag (MEQKLI) in surface loop at residue 236, untagged sigma2; E. coli; with AP-2 complex subunit sigma
Target sequence in this assay (P62743 whole entry): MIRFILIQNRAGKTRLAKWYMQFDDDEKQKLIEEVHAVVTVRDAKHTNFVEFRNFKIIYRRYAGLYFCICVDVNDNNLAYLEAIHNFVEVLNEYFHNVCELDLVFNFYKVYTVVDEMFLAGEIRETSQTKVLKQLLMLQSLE
Target sequence in this assay (P18484 1-620): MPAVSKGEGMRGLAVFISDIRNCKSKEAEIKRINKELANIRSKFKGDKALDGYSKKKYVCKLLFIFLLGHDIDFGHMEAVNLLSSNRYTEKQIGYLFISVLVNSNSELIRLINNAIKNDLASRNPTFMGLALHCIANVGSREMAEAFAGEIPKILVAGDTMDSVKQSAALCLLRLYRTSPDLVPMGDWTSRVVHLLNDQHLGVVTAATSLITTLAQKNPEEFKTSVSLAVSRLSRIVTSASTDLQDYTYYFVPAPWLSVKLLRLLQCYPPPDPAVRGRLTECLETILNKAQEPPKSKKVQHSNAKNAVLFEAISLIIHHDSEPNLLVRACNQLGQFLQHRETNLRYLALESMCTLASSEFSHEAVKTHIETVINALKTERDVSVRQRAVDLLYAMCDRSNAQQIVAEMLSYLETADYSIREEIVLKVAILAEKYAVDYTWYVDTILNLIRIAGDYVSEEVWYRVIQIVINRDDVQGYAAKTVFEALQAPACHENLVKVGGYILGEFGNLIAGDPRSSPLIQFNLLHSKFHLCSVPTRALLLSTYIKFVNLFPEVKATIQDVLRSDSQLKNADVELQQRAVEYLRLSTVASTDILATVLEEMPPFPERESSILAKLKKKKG
Target sequence in this assay (P84092 whole entry): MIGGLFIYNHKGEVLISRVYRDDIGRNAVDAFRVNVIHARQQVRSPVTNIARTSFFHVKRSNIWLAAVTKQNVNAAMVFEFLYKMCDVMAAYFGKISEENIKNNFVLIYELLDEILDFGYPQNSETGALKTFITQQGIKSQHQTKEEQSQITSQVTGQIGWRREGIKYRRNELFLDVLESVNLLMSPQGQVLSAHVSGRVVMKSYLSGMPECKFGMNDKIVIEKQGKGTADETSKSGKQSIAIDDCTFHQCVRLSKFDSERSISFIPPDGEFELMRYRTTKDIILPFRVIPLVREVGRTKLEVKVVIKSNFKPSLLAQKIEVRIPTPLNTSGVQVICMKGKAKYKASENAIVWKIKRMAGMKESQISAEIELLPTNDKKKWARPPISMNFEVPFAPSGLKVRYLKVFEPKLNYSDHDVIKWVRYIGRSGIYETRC
Target sequence in this assay (P63010 1-592): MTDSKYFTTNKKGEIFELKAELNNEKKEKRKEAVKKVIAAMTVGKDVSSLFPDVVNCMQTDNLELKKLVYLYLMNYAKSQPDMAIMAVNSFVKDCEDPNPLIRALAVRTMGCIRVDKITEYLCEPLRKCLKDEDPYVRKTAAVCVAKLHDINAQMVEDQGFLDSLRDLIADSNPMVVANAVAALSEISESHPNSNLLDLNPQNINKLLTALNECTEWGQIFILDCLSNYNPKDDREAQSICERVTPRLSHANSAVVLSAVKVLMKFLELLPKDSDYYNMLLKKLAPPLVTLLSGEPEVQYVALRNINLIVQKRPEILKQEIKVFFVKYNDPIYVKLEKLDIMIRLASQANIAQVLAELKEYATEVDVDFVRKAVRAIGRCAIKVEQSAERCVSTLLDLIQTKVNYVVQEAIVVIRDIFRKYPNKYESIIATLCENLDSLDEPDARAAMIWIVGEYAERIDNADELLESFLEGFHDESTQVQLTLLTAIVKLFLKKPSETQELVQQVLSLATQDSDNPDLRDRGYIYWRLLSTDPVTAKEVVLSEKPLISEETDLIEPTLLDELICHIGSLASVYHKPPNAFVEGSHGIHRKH

[2] = target: T1, AP2 core; conditions: apparent, multivalent membrane binding; five lysines of the second basic region (Lys330-Lys373) of C-mu2 to Glu, which five not told
From the text: SPR, PtdIns4,5P2-containing liposomes on L1 chip on AP2 core | (5K>E) slightly weakens the binding of AP2 cores to PtdIns4,5P2-containing membranes
Target sequence in this assay (P18484 1-620): as the sequence (P18484 1-620) above
Target sequence in this assay (P84092 whole entry): as the sequence (P84092 whole entry) above
Target sequence in this assay (P62743 whole entry, further chain): as the sequence (P62743 whole entry) above
Target sequence in this assay (P63010 1-592): as the sequence (P63010 1-592) above

[3] = target: T2, AP2 core (Rattus norvegicus; Mus musculus; Homo sapiens, UniProt P18484+P63010+P84092); conditions: apparent, multivalent membrane binding (sites on alpha, beta2, mu2); no cargo peptide; 10 mM Tris pH 8.7, 250 mM NaCl
T2 construct: gene Ap2a2; heterotetrameric 200 kDa core: alpha trunk-GST, His6-beta2 trunk, mu2 with myc tag (MEQKLI) in surface loop at residue 236, untagged sigma2; E. coli; with AP-2 complex subunit sigma
T2 sequence (P62743 whole entry): as the sequence (P62743 whole entry) above
T2 sequence (P84092 whole entry): as the sequence (P84092 whole entry) above
T2 sequence (P63010 1-592): as the sequence (P63010 1-592) above
T2 sequence (P18484 1-620): as the sequence (P18484 1-620) above

pKd [1]: 4.52
pKd [2]: 4.96
pKd [3]: 5.15
Substance: PtdIns4,5P2
